Test results from PubChem BioAssay (NCI).
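How tested: cells in 96-well plates exposed to compound for 48 hours at five concentrations. TGI marks complete inhibition of growth.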 Where a SMILES comes first, the peptide text is derived from it. [ ]: non-standard residue; d: D form. The star is where a group is joined. ξ: configuration not given here. ξPhe(4-NO2) = NC(Cc1ccc([N+](=O)[O-])cc1)C(=O)O; Boc = CC(C)(C)OC(=O)*

Assays:
Assay in all cases: NCI-60 cell line screen, 48 h
DU-145 prostate = system: DU-145 prostate
HT29 colon = system: HT29 colon
786-0 renal = system: 786-0 renal
NCI-H522 lung = system: NCI-H522 lung
MOLT-4 leukemia = system: MOLT-4 leukemia
SF-268 CNS = system: SF-268 CNS
IGROV1 ovarian = system: IGROV1 ovarian
UACC-62 melanoma = system: UACC-62 melanoma
OVCAR-5 ovarian = system: OVCAR-5 ovarian
COLO 205 colon = system: COLO 205 colon
PC-3 prostate = system: PC-3 prostate
K-562 leukemia = system: K-562 leukemia
MDA-MB-231 breast = system: MDA-MB-231 breast
SK-MEL-28 melanoma = system: SK-MEL-28 melanoma

SMILES | TGI (DU-145 prostate) [µM] | TGI (HT29 colon) [µM] | TGI (786-0 renal) [µM] | TGI (NCI-H522 lung) [µM] | TGI (MOLT-4 leukemia) [µM] | TGI (SF-268 CNS) [µM] | TGI (IGROV1 ovarian) [µM] | TGI (UACC-62 melanoma) [µM] | TGI (OVCAR-5 ovarian) [µM] | TGI (COLO 205 colon) [µM] | TGI (PC-3 prostate) [µM] | TGI (K-562 leukemia) [µM] | TGI (MDA-MB-231 breast) [µM] | TGI (SK-MEL-28 melanoma) [µM]
C=C(C1=CC(=O)C(C)(C)O1)[C@@H]1CC=C([C@@H]2CC[C@H]3[C@@]2(C)CC[C@H]2C(C)(C)C(=O)[C@H](OC(=O)CC(C)(O)CC(=O)O)C[C@]32C)[C@H](O)O1 (stereo partly specified) | 45.6 | 34.4 | 24.4 | 25.4 | 30.8 | 24.4 | 26.3 | 23.5 | 26.5 | 24.5 | 30.2 | > 75 | 35.8 | 
CCNC(=O)CNC(=O)C(Cc1ccc([N+](=O)[O-])cc1)NC(=O)OC(C)(C)C (stereo unspecified) (Boc-[ξPhe(4-NO2)]-Gly-NHEt) | > 100 | > 100 | > 100 | > 100 | > 100 | > 100 | > 100 | > 100 | > 100 | > 100 | > 100 | > 100 | > 100 | > 100
N#CC1=C(S)N(C2OC(CO)C(O)C(O)C2O)C(c2ccccc2)=CC1c1cccs1 (stereo unspecified) | > 10 | 37.5 | 35.7 | 47.5 | > 100 | 63.8 | 45.7 | 48.3 | > 100 | 38.6 | 30.8 | > 100 | 63.5 | 41.4
Cc1cc(=O)n2nc(CSc3n[nH]c(=S)s3)sc2n1 | > 100 | > 100 | > 100 | > 100 | > 100 | > 100 | > 100 | > 100 | > 100 | > 100 | > 100 | > 100 | > 100 | > 100
FC(F)(F)C1(c2ccccc2)SCc2nc3ccccc3n21 (stereo unspecified) | > 100 | > 100 | > 100 | > 100 | > 100 | > 100 | > 100 | > 100 | > 100 | > 100 | > 100 | > 100 | > 100 | > 100
COc1ccc(Br)c(C=Nc2cccc3cc(OC)c(OC)cc23)c1 | > 100 | > 71.8 | > 100 | > 100 | > 62.4 | > 100 | > 93.9 | > 83 | > 100 | > 100 | > 100 | > 39.6 | > 46.4 | > 100
O=c1oc2ccccc2n1CCCn1c(=O)oc2ccccc21 | > 100 | > 100 | > 100 |  | > 100 | > 100 | > 100 | > 100 | > 100 | > 100 | > 100 | > 100 | > 100 | > 100
COC(=O)[C@]1(Cc2ccc3ccccc3c2)CCCCCCN1C(=O)c1ccccc1 | > 68.1 | > 45.2 | > 53.2 |  | > 47.7 | > 54 | > 58.2 | > 51.3 | > 65 | 24.5 | > 45.7 | > 100 | > 53.5 | > 52.1
CCNC1=C(NC(=O)CCl)C(=O)c2ccccc2C1=O | > 10 | > 10 | > 100 | 32.2 | 55.5 | 32.8 | > 10 |  | 34.2 | > 10 | 30.3 | > 100 | 40.9 | 31.7
CCOc1cc(/C=C2\N=C(c3ccccc3)N(c3nc4ccccc4s3)C2=O)ccc1O | > 100 | > 100 | > 100 | 60 | 58.9 | > 100 | > 100 |  | > 100 |  | 79.4 | > 100 | > 100 | > 100
C=CCN(c1cc(OC)c2c(c1[N+](=O)[O-])C(C)(SC)C(=O)N2)S(C)(=O)=O (stereo unspecified) | > 100 | > 100 | > 100 | > 100 |  | > 100 | > 100 | > 100 |  | > 100 | > 100 | > 100 | > 100 | > 100
O=C(Nc1nccs1)NS(=O)(=O)n1cnc2ccccc21 | > 100 | > 100 | > 100 | > 100 | > 100 | > 100 | > 100 | > 100 | > 100 | > 100 | > 100 |  | > 100 | > 100
Cc1ccc(N2C3=C(CC4=C2CC(C)(C)CC4=O)C(=O)CC(C)(C)C3)cc1 | > 100 | > 100 | > 100 |  | > 100 | > 100 | > 100 | > 100 | > 100 | > 100 | > 100 | > 100 | > 100 | > 100
O=C1CSC(c2cccc(Oc3ccccc3)c2)N1c1cccc(Cl)c1Cl (stereo unspecified) | > 100 | 63.1 | 87.7 | 61.1 | 55.7 | 60 |  | 46.9 | > 100 | 44.1 | 95.3 | 63.9 | > 100 | > 100
CN(C)c1c(C2CC(O)C(CO)O2)c(=O)c1=O (stereo unspecified) | > 100 | > 100 | > 100 | > 100 | > 100 | > 100 | > 100 | > 100 | > 100 |  | > 100 | > 100 | > 100 | > 100
Cc1c(C#N)c(N)n(C2OC(CO)C(O)C(O)C2O)c(=S)c1C#N (stereo unspecified) | > 100 | > 100 | > 100 | > 100 | > 100 | > 100 | > 100 | > 100 | > 100 |  | > 100 | > 100 | > 100 | > 100
Cc1nn(C(=O)c2ccncc2)c2c1C(c1ccc([N+](=O)[O-])cc1)SC(N)=N2 (stereo unspecified) | > 100 | > 100 | > 100 |  | > 100 | > 100 | > 100 | > 100 | > 100 | > 100 | > 100 | > 100 | > 100 | > 100

SMILES | TGI (DU-145 prostate) [µM] | TGI (HT29 colon) [µM] | TGI (786-0 renal) [µM] | TGI (NCI-H522 lung) [µM] | TGI (MOLT-4 leukemia) [µM] | TGI (SF-268 CNS) [µM] | TGI (IGROV1 ovarian) [µM] | TGI (UACC-62 melanoma) [µM] | TGI (OVCAR-5 ovarian) [µM] | TGI (COLO 205 colon) [µM] | TGI (PC-3 prostate) [µM] | TGI (K-562 leukemia) [µM] | TGI (MDA-MB-231 breast) [µM] | TGI (SK-MEL-28 melanoma) [µM]
O=C1c2cc([N+](=O)[O-])sc2C(=O)c2cc([N+](=O)[O-])sc21 | 23.9 | 11.5 | 6.78 | 3.02 | > 22.7 | 10 | 3.07 | 3.8 | 15.5 | 6.1 | 15.9 |  | 5.66 | 8.3
CC(C)(C)C(=O)CC(=O)C(F)(F)C(F)(F)C(F)(F)F.[Ag] | > 100 | 36 | 33 |  | 44.8 | 40.3 | 26.5 | 32 | > 100 | 57.9 | 26.8 | 65.8 | 30.1 | 28.3
COc1ccc(NC(=O)CC(=O)N2N=C(C)C(N=Nc3ccc(C(=O)O)cc3)C2=O)cc1 (stereo unspecified) | > 100 | > 100 | > 100 | > 100 |  | > 100 | > 100 | > 100 | > 100 | > 100 | > 100 | > 100 | > 100 | > 100
S=C(S)N1CCN(c2ccccc2)CC1 | > 100 | > 100 | > 100 | > 100 |  | > 100 | > 100 |  | > 100 | > 100 | > 100 | > 100 | > 100 | > 100
CNC(=O)OCC1=C(COC(=O)NC)C(C)N(c2ccccc2)C1 (stereo unspecified) | > 100 | 53.7 | > 100 |  | 71.1 | > 100 | 98.4 | 68.8 | 91.9 | 48.5 | > 100 | 72 | > 100 | > 100
OC[C@@H](O)[C@H](O)[C@@H](O)/C=N/Nc1ccc(Cl)nn1 | > 100 | > 100 | > 100 | > 100 | > 100 | > 100 | > 100 | > 100 | > 100 | > 100 | > 100 |  | > 100 | > 100
COC(=O)/C=C/c1cnc2c(c1)oc(=O)n2C | > 100 | > 100 | > 100 |  | > 100 | > 100 | > 100 | > 100 | > 100 | > 100 | > 100 | > 100 | > 100 | > 100
COc1ccc2c(c1)C(=O)[C@@](Nc1ccc(C=O)cc1)(OC)[C@@](OC)(c1ccc([N+](=O)[O-])cc1)O2 | > 10 | > 10 | > 10 |  | > 10 | > 10 | > 10 | > 10 | > 10 | > 10 | > 10 | > 10 | > 10 | > 10
COc1ccc(C(=O)N(Cc2cccnc2)C(=S)N(Cc2cccnc2)C(=O)c2ccc(OC)cc2)cc1 | > 100 | > 100 | > 100 | > 100 | > 100 | > 100 |  | > 100 | > 100 | > 100 | > 100 | > 100 | > 100 | > 100
NC(Cc1ccc(O)cn1)C(=O)O (stereo unspecified) | > 100 | > 100 | > 100 | > 100 | > 100 | > 100 | > 100 |  | > 100 | > 100 | > 100 | > 100 | > 100 | > 100
CC(=O)OCCCCn1cnc2c(Cl)nc(Nc3ccccc3)nc21 | > 100 | > 100 | > 100 | 87.4 | > 100 |  | > 100 | > 100 | > 100 | > 100 | > 100 | > 100 | > 100 | > 100
CC1OC(OC2C[C@](O)(C(=O)CBr)Cc3c(O)c4c(c(O)c32)C(=O)c2ccccc2C4=O)C(F)C(O)C1O (stereo partly specified) | 63.2 | > 56.1 | > 59.5 | 23.5 |  | 73.7 | 60.9 | 34.5 | > 59.7 | 28.8 | > 68.2 | > 38.8 | 25.2 | > 66.1
COc1cc(C(=O)N(C(=S)OC23CC4CC(CC(C4)C2)C3)c2ccccc2)cc(OC)c1OC | > 100 | 41.8 | > 100 | 25.9 | 21.8 | > 100 |  | > 100 | > 100 | 39 | > 100 | > 100 | > 100 | > 100
COc1ncc(C#CC(=O)c2ccccc2)c(OC)n1 | 19.7 | 5.07 | 4.2 | 2.81 | 2.38 | 26.4 | 7.49 | 8.78 | 12.8 | 5.08 | 4.43 |  | 5.49 | 11.4
COC1C(OC(C)=O)CC(=O)OC(C)C/C=C/C=C\C(O)C(C)CC(CC=O)C1OC1OC(C)C(OC2CC(C)(O)C(OC(=O)CC(C)C)C(C)O2)C(N(C)C)C1O (stereo unspecified) | > 100 | > 100 | > 100 | > 100 |  | > 100 | > 100 | > 100 | > 100 | > 100 | > 100 | > 100 | > 100 | > 100
Nc1nc(Cc2ccccc2)nc(Cc2ccccc2)c1-c1ccccc1 | 56.1 | > 100 | 70.5 | 46.1 | 59.7 | 85.9 | > 100 | 43 | > 100 |  | 77.7 | > 100 | 49.1 | > 100
